From patent publication US20240424132A1, “ATHEROSCLEROSIS-TARGETED LIPOSOME NANOCARRIER DELIVERY SYSTEM AND PREPARATION METHOD THEREFOR” (Beijing Inno Medicine Co., Ltd., priority 2021, published 2024)

System: arterial plaques
Test: In vivo therapeutic effect on arterial plaques (carotid MRI, percentage of plaque volume progression)
Design: species or system ApoE−/− mice
Settings: 0.66 mg rosuvastatin per kg, once every other day, 4 weeks
Method: (1) A normal saline solution of free rosuvastatin was prepared, and a nanodelivery system loaded with the therapeutic agent was prepared by the method described in the above Example 2. SPF-grade ApoE−/− mice (42 mice, 5-6 weeks old, weight 20±1 g) were taken as assay animals. The mice were fed an adaptive high-fat diet (fat 10% (w/w), cholesterol 2% (w/w), sodium cholate 0.5% (w/w), and the rest being normal feed for mice) for 4 weeks, and then anaesthetized via intraperitoneal injection of 1% sodium pentobarbital (prepared by adding […] of sodium pentobarbital to 100 ml of normal saline) at a dose of 40 mg/kg. Then, the mice were fixed on the surgical plate in the supine position, and disinfected around the neck with 75% (v/v) alcohol. The neck skin was cut longitudinally, and the anterior cervical gland was bluntly separated, and the beating left common carotid artery can be observed on the left side of the trachea. The common carotid artery was carefully separated to the bifurcation. A silicone cannula with a length of 2.5 mm and an inner size of 0.3 mm was placed on the outer periphery of the left common carotid artery. […] For animals in each group, carotid MRI scans were performed before and after treatment weekly to detect plaque and lumen area, and the percentage of plaque volume progression was calculated based on the scanned thickness. […]

SMILES: CC(C)c1nc(N(C)S(C)(=O)=O)nc(-c2ccc(F)cc2)c1/C=C/[C@@H](O)C[C@@H](O)CC(=O)O [free rosuvastatin, rosuvastatin]
- therapeutic effect on plaques, intravenous administration (intravenous): cannot exhibit the therapeutic effect of reversing plaques
- therapeutic effect on plaques, oral administration (oral): cannot exhibit the therapeutic effect of reversing plaques
